# Measurements from patent publication US20070026478A1, “Hemiasterlin affinity probes and their uses” (WYETH, priority 2002, published 2007).
# Counter-ions that a name gives are not always drawn. Like-named read-outs stand apart in the source and are kept apart here. Marks after values point to notes of the source that are not given here.
# What was measured:
# [1] = molecular target: P-glycoprotein (Homo sapiens, UniProt P08183); details: Loganzo et al., Cancer Res. 2003; cited from earlier work
# [2] = molecular target: T1, bovine MAP-rich tubulin (Bos taurus, UniProt P81947+Q6B856); assay: Tubulin polymerization assay in a cell-free system; format: biochemical; details: 0.3 μM compound
# T1 construct: MAP-rich bovine brain tubulin (99% purity), Hela cell tubulin (90% purity); purchased Cytoskeleton (Denver, Colo.); host or cells: bovine brain
# Method: In vitro tubulin polymerization assays were performed according to procedures that have been described elsewhere (Loganzo et al., Cancer Res. 2003, 63:1838-1845). Briefly, bovine MAP-rich tubulin (final concentration 1.5 mg/mL) was dissolved in cold PEM buffer containing 1 mM GTP (GPEM) and centrifuged at 12,000×g for 10 minutes at 4° C. The tubulin solution (100 μL/well) was added rapidly to wells of a low-volume, 96-well plate already containing duplicate aliquots (10 μL) of test compounds in GPEM. Final compound concentrations were 0.3 μM. Control wells contained the same final concentration of DMSO (0.3%). After initiation of the reaction, absorbance at 340 nm was measured every minute for 60 minutes at 24° C. using a SpectraMax Plus plate reader (Molecular Devices, Sunnyvale, Calif.). An increase in absorbance over time indicated an increase in turbidity resulting from tubulin polymerization.
# [3] = molecular target: T2, bovine brain tubulin (Bos taurus, UniProt P81947+Q6B856); assay: Competition of [3H]-Probe 1 photolabeling of tubulin; format: binding; details: for inhibition of incorporation of radiolabeled Probe 1 into α-tubulin: 1 mM competitor, 37° C. incubation; for Probe 1 photolabeling of tubulin (% of no-competitor control): control (no competitor) = 100
# T2 construct: MAP-rich bovine brain tubulin (99% purity), Hela cell tubulin (90% purity); purchased Cytoskeleton (Denver, Colo.); host or cells: bovine brain
# Method: (§1) Alternatively, a cytosolic preparation of KB-3-1 cell lysates (50 μg) or KB-3-1 cells (40,000 cells) were used in the place of purified tubulin above. The supernatant of mechanically disrupted cells centrifuged at 100,000×g was used as a cytosolic preparation. K-3-1 cells were prepared by growing KB-3-1 cells in a 96-well plate and rinsing them with serum free medium.
# If whole cells were used, Laemmli sample buffer was then added to lyse the cells.
# Low grade SDS (Sigma, catalog No. L5750) was used in the running buffer, when needed, to allow separation of α and β-tubulin subunits. Gels were fixed, stained with Coomassie blue from BioRad (Hercules, Calif.) to ensure equal loading of protein, and sliced. […] Alternatively, gels were incubated with EN^3HANCE according to the manufacturer's instructions (Life Sciences Products, Inc.), washed, and dried prior to exposure of the gel to Biomax MX film from Kodak (Rochester, N.Y.) for fluorography.
# After incubation for 30 minutes at 37° C., samples were irradiated with 360 nm UV light for 30 minutes and separated by SDS-PAGE. Gels were exposed to film using fluorographic techniques.
# In particular, photolabeling experiments were performed as described in section 7.1.5 above, at both room temperature and at 37° C.
# [4] = molecular target: T3, tubulin in whole KB-3-1 cells (Homo sapiens, UniProt P07437+P68363); assay: Probe 1 photolabeling in whole KB-3-1 cells; format: cell-based; details: 250 μM pre-incubation at 37° C. for 15 minutes
# T3 construct: a cytosolic preparation of KB-3-1 cell lysates (50 μg) or KB-3-1 cells (40,000 cells) were used in the place of purified tubulin; endogenous in cells; host or cells: KB-3-1 cells (cytosolic supernatant at 100,000 x g, or whole cells)
# Method: as §1, with “medium. For experiments with whole cells, 250 μM HTI-286 was used as the competitor molecule during pre-incubation at 37° C. for 15 minutes.” for “medium.”
# Samples were irradiated at 360 nm with a Mineralight lamp (UVP, Upland, Calif.) for 30 minutes (for Probe 1), 2 hours (for whole cells with Probe 1), or 2 hours (for Probe 2) at 4° C., unless otherwise noted. Radiation of the benzophenone moiety at this wavelength effectively activates the photoprobe with minimal destruction of protein compared to the shorter wavelengths typically used for azido-containing photoprobes (see, Williams et al., Methods Enzymol. 1986, 126:667-682). If whole cells were used, Laemmli sample buffer was then added to lyse the cells.
# [5] = molecular target: T4, tubulin (Bos taurus, UniProt P81947+Q6B856); assay: Competition of [3H]-Probe 2 photolabeling of tubulin; format: binding, bovine; details: 100 μM competitor, 2.5 μM tubulin, 0.25 μM [3H]-Probe 2, room temperature
# T4 construct: MAP-rich bovine brain tubulin (99% purity), Hela cell tubulin (90% purity); purchased Cytoskeleton (Denver, Colo.); host or cells: bovine brain
# Method: as §1
# Competition binding experiments were performed as described in Section 7.1.5. […] Samples were then irradiated for 2 hours at 4° C. and evaluated by SDS-PAGE and fluorography.
# [6] = molecular target: T4, tubulin; assay: Separation of polymerized and free tubulin by centrifugation; format: biochemical, bovine; details: 50 μM drug, centrifugation at 10,000 g and 100,000 g
# Method: Tubulin (5 μg) was incubated with 50 μM drug at room temperature for 25 minutes and then centrifuged at either 10,000 g for 15 minutes in a tabletop microfuge or at 100,000 g for 15 minutes in an airfuge. The supernatant was carefully removed to a fresh tube to obtain free tubulin and the pellet was solubilized in SDS-PAGE sample buffer.
# [7] = molecular target: T5, α-tubulin (Bos taurus, UniProt P81947+Q6B856); assay: Subtilisin digestion of tubulin after incubation with various compounds; format: biochemical, bovine; details: 50 μM drug, subtilisin up to 60 min at room temperature
# T5 construct: MAP-rich bovine brain tubulin (99% purity), Hela cell tubulin (90% purity); purchased Cytoskeleton (Denver, Colo.); host or cells: bovine brain
# Method: Tubulin (5 μg) was incubated with 50 μM drug at room temperature for 25 minutes and then digested under native conditions with subtilisin (0.05 μg) for 0, 5, 10, 15, 30 and 60 min at room temperature. Enzymatic digestion was stopped with 1 mM PMSF and samples were resolved by SDS-PAGE under conditions that allowed separation of α- and β-tubulin subunits. Gels were then fixed and stained with Coomassie blue.
# [8] = molecular target: T2, bovine brain tubulin; assay: Reversible binding affinity assay (tubulin fluorescence)
# Method: The affinity of both HTI-286 and of non-radiolabled Probe 1 and Probe 2, to bovine brain tubulin was determined by previously published methods (Krishnamurthy et al., Biochem., submitted). Briefly, 5 mg/mL […] tubulin prepared in PEM buffer was pre-incubated with buffer or varying concentrations of test agents in individual quartz cuvettes. The intrinsic tryptophan fluorescence of tubulin (excitation at 560 nm and maximal emission at 580 nm) was measured after pre-incubation for 90 minutes. The change in fluorescence intensity at 580 nm in the presence of compound was fitted to a quadratic equation to obtain apparent dissociation constants (KD) of the test agents.
# [9] = tested on: KB cells; assay: Cell proliferation assay in tissue culture (SRB); format: cell-based; details: Homo sapiens, KB, 72 h
# Method: Cell proliferation studies were performed according to procedures described by Loganzo et al. (Cancer Res. 2003, 63:1838-1845). Briefly, KB cells were plated in 96-well plates in 100 μL media at densities pre-determined to produce 60-90% confluence at the time of analysis. Compounds, which were serially diluted into media as 2× stocks, were added to cells in duplicate. After 72 hours of incubation, cell survival was assayed by the SRB assay as described (Rabindran et al., C. Cancer Res. 1998, 58:5850-5858). IC50 values (i.e. the concentration of drug needed to inhibit cell growth by 50%) were used to evaluate drug potency.
smiles,measurement,setting,value
"CN[C@H](C(=O)N[C@H](C(=O)N(C)[C@H](/C=C(\C)C(=O)O)C(C)C)C(C)(C)C)C(C)(C)c1ccccc1 [HTI-286, N,β,β-trimethyl-L-phenylalany-N^1[(1S,2E)-3-carboxy-1-isopropylbut-2-enyl]-N^1,3-dimethyl-L-valinamide trifluoroacetate]",interaction with P-glycoprotein,[1],weak interaction
same,inhibition at 0.3 µM,[2],88%
same,tubulin polymerization (% inhibition),[2]; 0.3 µM,87.5 ± 12.2 (n = 49) %
same,inhibition of incorporation of radiolabeled Probe 1 into α-tubulin,"[3]; 0.25 μM radiolabeled Probe 1, 2.5 μM tubulin",completely inhibits
same,inhibition of incorporation of radiolabeled Probe 1 into α-tubulin,"[3]; 2.5 μM radiolabeled Probe 1, 2.5 μM tubulin",more than 50%
same,reduction of Probe 1 photolabeling of tubulin,[3]; 37° C.,about 50%
same,Probe 1 photolabeling of tubulin (% of no-competitor control),"[3]; 37° C., 100 μM competitor",47^† %
same,Probe 1 photolabeling of tubulin (% of no-competitor control),"[3]; Room Temp., 2.5 μM tubulin, 0.25 μM radiolabeled Probe 1, 100 μM competitor",27 ± 4%
same,IC50,"[3]; room temperature, 2.5 μM tubulin, 0.25 μM radiolabeled Probe 1, read-out: IC50 for inhibition of Probe 1 photolabeling of tubulin",7000 nM
same,reduction of Probe 1 photolabeling of tubulin,"[3]; room temperature, 400-fold molar excess (100 μM) competitor, 2.5 μM tubulin, 0.25 μM radiolabeled Probe 1",approximately 72%
same,competition of radiolabeled Probe 1 labeling in whole cells,[4],eliminates the specific labeling of the 50 kDa tubulin band
same,inhibition of Probe 2 labeling of tubulin,[5],45%
same,protein recovered in pellet fractions (tubulin aggregation),[6],no significant protein was recovered
same,protection of α-tubulin from subtilisin cleavage,[7],unable to cleave α-tubulin even after 60 minutes
same,Kd,"[8]; Table 1, binding to bovine brain tubulin, read-out: KD",400 to 800 nM
same,Kd,"[8]; rhodamine-labeled tubulin, 90 minutes pre-incubation, read-out: apparent binding constant (KD), fluorescence method",600 nM
same,IC50,[9],0.96 nM
